Laboratory results reported in PMC6496074, “The Evolution of Azole Resistance in Candida albicans Sterol 14α-Demethylase (CYP51) through Incremental Amino Acid Substitutions” (Antimicrobial Agents and Chemotherapy, 2019).
In brackets after ≈: the same amount, converted by molar mass. Several values for one entry are separate records, joined by “and”; a condition that tells them apart may be missing. Equal values may be shown once.

How the values were obtained:
CaCYP51 D278N+G464S = molecular target: T1, CaCYP51 D278N+G464S (Candida albicans, UniProt P10613, D278N/G464S); assay: CYP51 reconstitution assay; format: biochemical; settings: for remaining activity at 4 µM: 0.25 h, 4 μM triazole, % of activity without triazole, read-out: Residual CYP51 activity (%) ± SD; for IC50: mean ± SD, duplicate
T1 construct: made in house; host or cells: E. coli DH5α (pCWori+)
Experimental: (§1) Azole antifungal agents were added in 2.5 μl dimethyl sulfoxide, followed by 10 min of incubation at 37°C prior to assay initiation with 4 mM β-NADPH-Na4. The samples were then shaken for 15 min at 37°C. Sterol metabolites were recovered by extraction with ethyl acetate, followed by derivatization with 0.1 ml N,O-bis(trimethylsilyl)trifluoroacetamide (BSTFA)–trimethylchlorosilane (TMCS) (99:1) and 0.3 ml anhydrous pyridine (2 h at 80°C), prior to analysis by gas chromatography-mass spectrometry (GC-MS) ([52]). IC50 determinations were performed in duplicate.

CaCYP51 P230L = molecular target: T2, CaCYP51 P230L (Candida albicans, UniProt P10613, P230L); assay: CYP51 reconstitution assay; format: biochemical; settings: for remaining activity at 4 µM: 0.25 h, 4 μM triazole, % of activity without triazole, read-out: Residual CYP51 activity (%) ± SD; for IC50: mean ± SD, duplicate
T2 construct: made in house; host or cells: E. coli DH5α (pCWori+)
Experimental: as §1

CaCYP51 R467K = molecular target: T3, CaCYP51 R467K (Candida albicans, UniProt P10613, R467K); assay: CYP51 reconstitution assay; format: biochemical; settings: for remaining activity at 4 µM: 0.25 h, 4 μM triazole, % of activity without triazole, read-out: Residual CYP51 activity (%) ± SD; for IC50: mean ± SD, duplicate
T3 construct: made in house; host or cells: E. coli DH5α (pCWori+)
Experimental: as §1

CaCYP51 V437I = molecular target: T4, CaCYP51 V437I (Candida albicans, UniProt P10613, V437I); assay: CYP51 reconstitution assay; format: biochemical; settings: for remaining activity at 4 µM: 0.25 h, 4 μM triazole, % of activity without triazole, read-out: Residual CYP51 activity (%) ± SD; for IC50: mean ± SD, duplicate
T4 construct: made in house; host or cells: E. coli DH5α (pCWori+)
Experimental: as §1

[1] = system: C. albicans SC5314 strain with CaCYP51 substitution D278N+G464S; assay: CLSI broth microdilution MIC; format: cell-based, Candida albicans; settings: for MIC: Candida albicans, SC5314, RPMI 1640, 24 h, 35°C, 50% reduction in growth
Excerpt: (§2) Strains expressing seven single mutations (Y132F, K143R, F145L, S405F, G448E, G450E, G464S) and three double mutations (Y132F+K143R, Y132F+F145L, D278N+G464S) were selected from a previous study ([36]). Two additional strains expressing the Y132H and D278N CYP51 gene mutations were created utilizing the SAT1/FLP cassette described previously ([44]). […] Successful transformants were screened on yeast-peptone-dextrose agar plates containing nourseothricin and confirmed via Southern hybridization. Genomic DNA from nourseothricin-screened transformants was digested with the HindIII restriction enzyme, and the resulting DNA digests were loaded on 1% agarose gels containing ethidium bromide. Digested samples were visualized briefly under UV light after approximately 2 h of electrophoresis (120 V) to confirm appropriate band separation. Lanes containing digested DNA in the gel were transferred onto a nitrocellulose membrane via vacuum suction, and DNA was cross-linked to the membrane through UV exposure. PCR amplification of the genomic DNA from parent isolate SC5314 using primers ERG11_Probe_F (5′-[…]-3′) and ERG11_Probe_R (5′-[…]-3′) generated a 254-bp product, used as a probe for the ERG11 gene locus. The probe was labeled and prepared using an Amersham AlkPhos direct labeling and detection system (GE Life Sciences) and hybridized to the membrane through overnight incubation at 55°C. Bands containing the hybridized, alkaline phosphatase-labeled probe corresponding to either wild-type ERG11 alleles (2,678 bp) or successfully replaced alleles with the SAT1/FLP cassette included (4,318 bp) or recycled (3,119 bp) were visualized with the CDP-Star chemiluminescent detection reagent. To confirm the sequence of the replaced ERG11 allele, a DNA fragment containing the ERG11 ORF and approximately 435 bp upstream of the start codon and 229 bp downstream of the ERG11 stop codon was PCR amplified using primers CaERG11_A_(ApaI) (5′-[…]-3′) and CaERG11_E_(XhoI) (5′-[…]-3′). The resulting DNA fragment was purified and Sanger sequenced on an ABI model 3130XL genetic analyzer with the following sequencing primers: CaERG11SeqA (5′-[…]-3′), CaERG11SeqB (5′-[…]-3′), CaERG11SeqC (5′-[…]-3′), CaERG11SeqD (5′-[…]-3′), CaERG11SeqE (5′-[…]-3′), and CaERG11SeqF (5′-[…]-3′).
(§3) Azole MICs were determined using the broth microdilution method described by the Clinical Laboratory and Standards Institute ([45], [46]). […] Measurements were read visually at 24 h after incubation at 35°C for a 50% reduction in growth from that in the drug-free control wells. MIC measurements were performed in duplicate, and the MIC was reported as the higher of two values for all strains tested. In cases where the duplicate MIC values were not identical, the higher of the two MIC values is reported. […] Additionally, no MICs differed by more than 2 dilutions for a given strain and drug.

[2] = system: C. albicans SC5314 strain with CaCYP51 substitution G448E; assay: CLSI broth microdilution MIC; format: cell-based, Candida albicans; settings: for MIC: Candida albicans, SC5314, RPMI 1640, 24 h, 35°C, 50% reduction in growth
Excerpt: as §2, §3

[3] = system: C. albicans SC5314 strain with CaCYP51 substitution S405F; assay: CLSI broth microdilution MIC; format: cell-based, Candida albicans; settings: for MIC: Candida albicans, SC5314, RPMI 1640, 24 h, 35°C, 50% reduction in growth
Excerpt: as §2, §3

[4] = system: C. albicans SC5314 strain with CaCYP51 substitution F145L; assay: CLSI broth microdilution MIC; format: cell-based; settings: Candida albicans, RPMI 1640, 24 h, 35°C, 50% reduction in growth
Excerpt: as §2, §3

[5] = system: C. albicans SC5314 strain with CaCYP51 substitution G450E; assay: CLSI broth microdilution MIC; format: cell-based; settings: Candida albicans, RPMI 1640, 24 h, 35°C, 50% reduction in growth
Excerpt: as §2, §3

[6] = system: C. albicans SC5314 strain with CaCYP51 substitution G464S; assay: CLSI broth microdilution MIC; format: cell-based; settings: Candida albicans, RPMI 1640, 24 h, 35°C, 50% reduction in growth
Excerpt: as §2, §3

[7] = system: C. albicans SC5314 strain with CaCYP51 substitution K143R; assay: CLSI broth microdilution MIC; format: cell-based; settings: Candida albicans, RPMI 1640, 24 h, 35°C, 50% reduction in growth
Excerpt: as §2, §3

[8] = system: C. albicans SC5314 strain with CaCYP51 substitution Y132F+F145L; assay: CLSI broth microdilution MIC; format: cell-based; settings: Candida albicans, RPMI 1640, 24 h, 35°C, 50% reduction in growth
Excerpt: as §2, §3

[9] = system: C. albicans SC5314 strain with CaCYP51 substitution Y132F+K143R; assay: CLSI broth microdilution MIC; format: cell-based; settings: Candida albicans, RPMI 1640, 24 h, 35°C, 50% reduction in growth
Excerpt: as §2, §3

[10] = system: C. albicans SC5314 strain with CaCYP51 substitution Y132F; assay: CLSI broth microdilution MIC; format: cell-based; settings: Candida albicans, RPMI 1640, 24 h, 35°C, 50% reduction in growth
Excerpt: as §2, §3

[11] = system: C. albicans SC5314 strain with CaCYP51 substitution Y132H; assay: CLSI broth microdilution MIC; format: cell-based; settings: Candida albicans, RPMI 1640, 24 h, 35°C, 50% reduction in growth
Excerpt: as §2, §3

[12] = system: fluconazole-susceptible parent strain SC5314; assay: CLSI broth microdilution MIC; format: cell-based; settings: Candida albicans; parent strain SC5314, no substitution; RPMI 1640, 24 h, 35°C, 50% reduction in growth
Excerpt: as §2, §3

[13] = system: C. albicans SC5314 strain with CaCYP51 substitution D278N; assay: CLSI broth microdilution MIC; format: cell-based; settings: Candida albicans, RPMI 1640, 24 h, 35°C, 50% reduction in growth
Excerpt: as §2, §3

T2 sequence (P10613 whole entry, looked up, stated change not applied): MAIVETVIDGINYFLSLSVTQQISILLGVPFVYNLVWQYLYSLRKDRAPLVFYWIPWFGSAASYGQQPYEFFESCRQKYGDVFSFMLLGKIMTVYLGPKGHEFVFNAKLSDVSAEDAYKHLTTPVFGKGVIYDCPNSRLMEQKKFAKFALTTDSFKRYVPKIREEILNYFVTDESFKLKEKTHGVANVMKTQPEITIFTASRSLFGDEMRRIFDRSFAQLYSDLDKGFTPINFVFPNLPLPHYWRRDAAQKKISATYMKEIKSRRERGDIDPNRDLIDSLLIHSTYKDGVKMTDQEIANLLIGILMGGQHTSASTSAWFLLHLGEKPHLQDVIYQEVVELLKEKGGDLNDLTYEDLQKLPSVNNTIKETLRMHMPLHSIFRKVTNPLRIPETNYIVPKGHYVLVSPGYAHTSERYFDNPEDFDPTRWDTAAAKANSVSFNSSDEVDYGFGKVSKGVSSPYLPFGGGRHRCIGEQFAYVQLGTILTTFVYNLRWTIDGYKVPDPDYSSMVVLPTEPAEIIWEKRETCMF
T3 sequence (P10613 whole entry, looked up, stated change not applied): as above
T1 sequence (P10613 whole entry, looked up, stated change not applied): as above
T4 sequence (P10613 whole entry, looked up, stated change not applied): as above

Row | Compound | remaining activity at 4 µM (CaCYP51 D278N+G464S) [%] | IC50 (CaCYP51 D278N+G464S) [µM] | remaining activity at 4 µM (CaCYP51 P230L) [%] | IC50 (CaCYP51 P230L) [µM] | remaining activity at 4 µM (CaCYP51 R467K) [%] | IC50 (CaCYP51 R467K) [µM] | remaining activity at 4 µM (CaCYP51 V437I) [%] | IC50 (CaCYP51 V437I) [µM] | MIC [1] [µg/mL] | MIC [2] [µg/mL] | MIC [3] [µg/mL] | MIC [4] [µg/mL] | MIC [5] [µg/mL] | MIC [6] [µg/mL] | MIC [7] [µg/mL] | MIC [8] [µg/mL] | MIC [9] [µg/mL] | MIC [10] [µg/mL] | MIC [11] [µg/mL] | MIC [12] [µg/mL] | further results
1 | OC(Cn1cncn1)(Cn1cncn1)c1ccc(F)cc1F [Fluconazole, fluconazole] | 18.26 ± 0.08 | 1.24 ± 0.064 | 0.05 ± 0.03 | 0.334 ± 0.086 | 3.34 ± 0.61 | 0.476 ± 0.08 | 0.22 ± 0.06 | 0.281 ± 0.004 | 8 (≈ 26.1 µM) | 8 (≈ 26.1 µM) | 4 (≈ 13.1 µM) | 4 (≈ 13.1 µM) | 16 (≈ 52.2 µM) | 8 (≈ 26.1 µM) | 16 (≈ 52.2 µM) | 32 (≈ 104 µM) | 32 (≈ 104 µM) | 8 (≈ 26.1 µM) | 2 (≈ 6.53 µM) | 1 (≈ 3.27 µM) | fold increase in IC50 over wild-type enzyme (CaCYP51 D278N+G464S): 3 fold and 3.2 fold; fold increase in MIC over SC5314 [1]: at least 2 fold; fold increase in MIC over SC5314 [3]: at least 2 fold
2 | CC[C@@H]([C@H](C)O)n1ncn(-c2ccc(N3CCN(c4ccc(OC[C@@H]5CO[C@@](Cn6cncn6)(c6ccc(F)cc6F)C5)cc4)CC3)cc2)c1=O [Posaconazole, posaconazole] | 15 ± 1.16 | 0.93 ± 0.009 | 0.21 ± 0.05 | 0.238 ± 0.002 | 3.62 ± 0.09 | 0.38 ± 0.011 | 0.59 ± 0.2 | 0.319 ± 0.009 | ≤ 0.03 | 0.06 (≈ 0.0856 µM) | ≤ 0.03 | ≤ 0.03 | ≤ 0.03 | ≤ 0.03 | ≤ 0.03 | ≤ 0.03 | ≤ 0.03 | ≤ 0.03 | ≤ 0.03 | ≤ 0.03 | fold increase in IC50 over wild-type enzyme (CaCYP51 D278N+G464S): 4.8 fold; fold increase in MIC over SC5314 [2]: 2 fold; MIC [13]: ≤ 0.03 µg/mL
3 | C[C@@H](c1ncncc1F)[C@](O)(Cn1cncn1)c1ccc(F)cc1F [Voriconazole, voriconazole] | 4.79 ± 0.11 | – | 0.13 ± 0.12 | – | 0.52 ± 0.18 | – | – | – | 0.25 (≈ 0.716 µM) | 0.25 (≈ 0.716 µM) | 0.25 (≈ 0.716 µM) | 0.5 (≈ 1.43 µM) | 0.5 (≈ 1.43 µM) | 0.25 (≈ 0.716 µM) | 0.5 (≈ 1.43 µM) | 1 (≈ 2.86 µM) | 1 (≈ 2.86 µM) | 0.5 (≈ 1.43 µM) | 0.25 (≈ 0.716 µM) | ≤ 0.03 | MIC [13]: ≤ 0.03 µg/mL
4 | CCC(C)n1ncn(-c2ccc(N3CCN(c4ccc(OCC5COC(Cn6cncn6)(c6ccc(Cl)cc6Cl)O5)cc4)CC3)cc2)c1=O (centres unmarked) [Itraconazole, itraconazole] | 3.19 ± 0.46 | 0.403 ± 0.011 | 0.06 ± 0.01 | 0.265 ± 0.038 | 0.45 ± 0.17 | 0.235 ± 0.018 | 0.13 ± 0.02 | 0.293 ± 0.022 | 0.25 (≈ 0.354 µM) | 0.25 (≈ 0.354 µM) | 0.25 (≈ 0.354 µM) | 0.25 (≈ 0.354 µM) | 0.25 (≈ 0.354 µM) | 0.25 (≈ 0.354 µM) | 0.5 (≈ 0.709 µM) | 0.25 (≈ 0.354 µM) | 0.25 (≈ 0.354 µM) | 0.25 (≈ 0.354 µM) | 0.25 (≈ 0.354 µM) | 0.06 (≈ 0.085 µM) | MIC [13]: 0.125 µg/mL (≈ 0.177 µM)
